From patent US9976141B2, “Compositions and methods for inhibiting gene expression of Hif2alpha” (Arrowhead Madison Inc., priority 2015, dated 2018)
Strand notation (5' to 3'): a small letter for the sugar, then the base; units joined by * are phosphorothioate-linked, units joined directly phosphodiester-linked; [ ] holds rarer units or linkages, { } end groups; capitals alone tell only the bases. d = 2'-deoxy (DNA); m = 2'-O-methyl; f = 2'-fluoro

System: human EPAS1 (Hif2α) cDNA in psiCHECK2 (Renilla luciferase/EPAS1 fusion mRNA) in Hep3B cells
Assay: Efficacy screen of Hif2α RNAi triggers in vitro, dual-luciferase reporter assay (1 nM and 0.1 nM)
Format: cell-based
Conditions: Hep3B cells co-transfected with EPAS1-psiCHECK2, Renilla luciferase normalized to firefly luciferase
Excerpt: Candidate sequences were identified by in silico analysis and screened as chemically modified canonical siRNAs in vitro. For screening purposes, the human EPAS1 (Hif2α) cDNA sequence (accession #NM 001430) was synthesized and cloned (DNA 2.0, Menlo Park, Calif.) into a commercially-available reporter-based screening plasmid, psiCHECK2 (Promega, Madison, Wis.) which generated a Renilla luciferase/EPAS1 fusion mRNA. For RNAi trigger efficacy evaluation, Hep3B cells, a human hepatocellular carcinoma line, were plated at 10,000 cells per well in 96-well format. Each of the 187 EPAS1 RNAi triggers, in two subsets, was co-transfected at two concentrations, 1 nM and 0.1 nM, with 25 ng EPAS1-psiCHECK2 plasmid DNA per well and 0.2 μL LipoFectamine 2000 (Life Technologies) per well. Gene knockdown was determined by measuring Renilla luciferase levels normalized to the levels of constitutively-expressed firefly luciferase, also present on the psiCHECK-2 plasmid, using the Dual Luciferase Reporter Assay (Promega, Madison, Wis.) Table 5.

Substance | Relative Rluc-Hif2α (0.1 nM RNAi trigger) | Relative Rluc-Hif2α (1 nM RNAi trigger)
2231 (sense fGmAfGmAfCmUfGmUfAmUfGmGfUmCfAmGfCmUfAdT; antisense dTfAmGfCmUfGmAfCmCfAmUfAmCfAmGfUmCfUmCdT*dT; siRNA) [compound 2231] | 0.544 ± 0.368 | 0.491 ± 0.198
2232 (sense fCmUfCmCfGmAfCmUfCmCfUmUfCmCfGmAfCmUfAdT; antisense dTfAmGfUmCfGmGfAmAfGmGfAmGfUmCfGmGfAmGdT*dT; siRNA) [compound 2232] | 0.684 ± 0.061 | 0.468 ± 0.032
2233 (sense fUmCfCmGfAmCfUmCfCmCfAmGfCmAfUmUfCmGfAdT; antisense dTfCmGfAmAfUmGfCmUfGmGfGmAfGmUfCmGfGmAdT*dT; siRNA) [compound 2233] | 0.913 ± 0.019 | 0.862 ± 0.125
2234 (sense fCmGfAmCfUmCfCmCfAmGfCmAfUmUfCmGfAmGfAdT; antisense dTfCmUfCmGfAmAfUmGfCmUfGmGfGmAfGmUfCmGdT*dT; siRNA) [compound 2234] | 0.508 ± 0.148 | 0.388 ± 0.046
2235 (sense fGmAfCmUfCmCfCmAfGmCfAmUfUmCfGmAfGmCfAdT; antisense dTfGmCfUmCfGmAfAmUfGmCfUmGfGmGfAmGfUmCdT*dT; siRNA) [compound 2235] | 0.743 ± 0.129 | 0.857 ± 0.090
2236 (sense fCmAfGmGfUmGfCmUfCmGfGmCfGmUfCmUfGmAfAdT; antisense dTfUmCfAmGfAmCfGmCfCmGfAmGfCmAfCmCfUmGdT*dT; siRNA) [compound 2236] | 0.693 ± 0.071 | 0.761 ± 0.042
2237 (sense fGmUfGmCfUmCfGmGfCmGfUmCfUmGfAmAfCmGfAdT; antisense dTfCmGfUmUfCmAfGmAfCmGfCmCfGmAfGmCfAmCdT*dT; siRNA) [compound 2237] | 0.746 ± 0.029 | 0.978 ± 0.083
2238 (sense fUmCfGmGfCmGfUmCfUmGfAmAfCmGfUmCfUmCfAdT; antisense dTfGmAfGmAfCmGfUmUfCmAfGmAfCmGfCmCfGmAdT*dT; siRNA) [compound 2238] | 0.208 ± 0.023 | 0.148 ± 0.024
2239 (sense fGmGfCmGfUmCfUmGfAmAfCmGfUmCfUmCfAmAfAdT; antisense dTfUmUfGmAfGmAfCmGfUmUfCmAfGmAfCmGfCmCdT*dT; siRNA) [compound 2239] | 0.225 ± 0.022 | 0.157 ± 0.017
2240 (sense fCmGfUmCfUmGfAmAfCmGfUmCfUmCfAmAfAmGfAdT; antisense dTfCmUfUmUfGmAfGmAfCmGfUmUfCmAfGmAfCmGdT*dT; siRNA) [compound 2240] | 0.841 ± 0.048 | 0.845 ± 0.052
2241 (sense fAmAfAmAfGmGfAmGfUmAfGmCfUmCfGmGfAmGfAdT; antisense dTfCmUfCmCfGmAfGmCfUmAfCmUfCmCfUmUfUmUdT*dT; siRNA) [compound 2241] | 0.385 ± 0.028 | 0.270 ± 0.068
2242 (sense fGmGfGmUfUmUfCmAfUmUfGmCfCmGfUmGfGmUfAdT; antisense dTfAmCfCmAfCmGfGmCfAmAfUmGfAmAfAmCfCmCdT*dT; siRNA) [compound 2242] | 0.411 ± 0.019 | 0.222 ± 0.064
2243 (sense fUmUfCmAfUmGfGmGfAmCfUmUfAmCfAmCfAmGfAdT; antisense dTfCmUfGmUfGmUfAmAfGmUfCmCfCmAfUmGfAmAdT*dT; siRNA) [compound 2243] | 0.688 ± 0.059 | 0.694 ± 0.107
2244 (sense fGmGfGmAfCmUfUmAfCmAfCmAfGmGfUmGfGmAfAdT; antisense dTfUmCfCmAfCmCfUmGfUmGfUmAfAmGfUmCfCmCdT*dT; siRNA) [compound 2244] | 0.760 ± 0.050 | 0.915 ± 0.115
2245 (sense fAmCfAmCfAmGfGmUfGmGfAmGfCmUfAmAfCmAfAdT; antisense dTfUmGfUmUfAmGfCmUfCmCfAmCfCmUfGmUfGmUdT*dT; siRNA) [compound 2245] | 0.761 ± 0.039 | 0.727 ± 0.066
2246 (sense fGmAfGmCfUmAfAmCfAmGfGmAfCmAfUmAfGmUfAdT; antisense dTfAmCfUmAfUmGfUmCfCmUfGmUfUmAfGmCfUmCdT*dT; siRNA) [compound 2246] | 0.509 ± 0.044 | 0.327 ± 0.042
2247 (sense fGmCfUmAfAmCfAmGfGmAfCmAfUmAfGmUfAmUfAdT; antisense dTfAmUfAmCfUmAfUmGfUmCfCmUfGmUfUmAfGmCdT*dT; siRNA) [compound 2247] | 0.439 ± 0.082 | 0.231 ± 0.048

Substance | Relative Rluc-Hif2α (0.1 nM RNAi trigger) | Relative Rluc-Hif2α (1 nM RNAi trigger)
2248 (sense fCmUfAmAfCmAfGmGfAmCfAmUfAmGfUmAfUmCfAdT; antisense dTfGmAfUmAfCmUfAmUfGmUfCmCfUmGfUmUfAmGdT*dT; siRNA) [compound 2248] | 0.215 ± 0.007 | 0.148 ± 0.036
2249 (sense fGmGfAmCfAmUfAmGfUmAfUmCfUmUfUmGfAmCfAdT; antisense dTfGmUfCmAfAmAfGmAfUmAfCmUfAmUfGmUfCmCdT*dT; siRNA) [compound 2249] | 0.303 ± 0.042 | 0.190 ± 0.028
2250 (sense fUmCfUmUfUmGfAmCfUmUfCmAfCmUfCmAfUmCfAdT; antisense dTfGmAfUmGfAmGfUmGfAmAfGmUfCmAfAmAfGmAdT*dT; siRNA) [compound 2250] | 0.255 ± 0.020 | 0.139 ± 0.046
2251 (sense fUmCfAmCfUmCfAmUfCmCfCmUfGmCfGmAfCmCfAdT; antisense dTfGmGfUmCfGmCfAmGfGmGfAmUfGmAfGmUfGmAdT*dT; siRNA) [compound 2251] | 0.857 ± 0.087 | 0.872 ± 0.121
2252 (sense fGmAfGmAfUmUfCmGfUmGfAmGfAmAfCmCfUmGfAdT; antisense dTfCmAfGmGfUmUfCmUfCmAfCmGfAmAfUmCfUmCdT*dT; siRNA) [compound 2252] | 0.696 ± 0.096 | 0.592 ± 0.061
2253 (sense fUmUfCmGfUmGfAmGfAmAfCmCfUmGfAmGfUmCfAdT; antisense dTfGmAfCmUfCmAfGmGfUmUfCmUfCmAfCmGfAmAdT*dT; siRNA) [compound 2253] | 0.646 ± 0.144 | 0.564 ± 0.043
2254 (sense fUmCfGmUfGmAfGmAfAmCfCmUfGmAfGmUfCmUfAdT; antisense dTfAmGfAmCfUmCfAmGfGmUfUmCfUmCfAmCfGmAdT*dT; siRNA) [compound 2254] | 0.756 ± 0.080 | 0.641 ± 0.054
2255 (sense fGmAfCmAfUmGfUmCfCmAfCmAfGmAfGmCfGmGfAdT; antisense dTfCmCfGmCfUmCfUmGfUmGfGmAfCmAfUmGfUmCdT*dT; siRNA) [compound 2255] | 0.653 ± 0.130 | 0.721 ± 0.055
2256 (sense fGmCfGmGfGmAfCmUfUmCfUmUfCmAfUmGfAmGfAdT; antisense dTfCmUfCmAfUmGfAmAfGmAfAmGfUmCfCmCfGmCdT*dT; siRNA) [compound 2256] | 0.796 ± 0.028 | 0.765 ± 0.124
2257 (sense fGmGfAmUfGmAfAmGfUmGfCmAfCmGfGmUfCmAfAdT; antisense dTfUmGfAmCfCmGfUmGfCmAfCmUfUmCfAmUfCmCdT*dT; siRNA) [compound 2257] | 0.647 ± 0.127 | 0.802 ± 0.044
2258 (sense fCmAfCmGfGmUfCmAfCmCfAmAfCmAfGmAfGmGfAdT; antisense dTfCmCfUmCfUmGfUmUfGmGfUmGfAmCfCmGfUmGdT*dT; siRNA) [compound 2258] | 0.882 ± 0.098 | 0.972 ± 0.168
2259 (sense fUmCfAmCfCmAfAmCfAmGfAmGfGmCfCmGfUmAfAdT; antisense dTfUmAfCmGfGmCfCmUfCmUfGmUfUmGfGmUfGmAdT*dT; siRNA) [compound 2259] | 0.743 ± 0.086 | 0.836 ± 0.110
2260 (sense fCmAfCmCfAmAfCmAfGmAfGmGfCmCfGmUfAmCfAdT; antisense dTfGmUfAmCfGmGfCmCfUmCfUmGfUmUfGmGfUmGdT*dT; siRNA) [compound 2260] | 0.861 ± 0.031 | 1.030 ± 0.187
2261 (sense fAmGfGmCfCmGfUmAfCmUfGmUfCmAfAmCfCmUfAdT; antisense dTfAmGfGmUfUmGfAmCfAmGfUmAfCmGfGmCfCmUdT*dT; siRNA) [compound 2261] | 0.568 ± 0.065 | 0.657 ± 0.067
2262 (sense fUmCfCmUfCmAfCmAfAmUfAmGfUmCfUmGfUmGfAdT; antisense dTfCmAfCmAfGmAfCmUfAmUfUmGfUmGfAmGfGmAdT*dT; siRNA) [compound 2262] | 0.755 ± 0.031 | 0.277 ± 0.071
2263 (sense fAmAfUmAfGmUfCmUfGmUfGmUfGmGfCmUfAmCfAdT; antisense dTfGmUfAmGfCmCfAmCfAmCfAmGfAmCfUmAfUmUdT*dT; siRNA) [compound 2263] | 1.126 ± 0.083 | 0.875 ± 0.059
